# Experimental data reported in patent US20240115672A1, “TREATMENT OF AN IOP CONDITION” (THE RESEARCH FOUNDATION FOR THE STATE UNIVERSITY OF NEW YORK, priority 2021, published 2024).
# B1: RAP: inhibitor of LRP1 (protein, UniProt P30533 35-357, looked up)
# Alpha-2-macroglobulin …: YSREKNQPKPSPKRESGEEFRMEKLNQLWEKAQRLHLPPVRLAELHADLKIQERDELAWKKLKLDGLDEDGEKEARLIRNLNVILAKYGLDGKKDARQVTSNSLSGTQEDGLDDPRLEKLWHKAKTSGKFSGEELDKLWREFLHHKEKVHEYNVLLETLSRTEEIHENVISPSDLSDIKGSVLHSRHTELKEKLRSINQGLDRLRRVSHQGYSTEAEFEEPRVIDLWDLAQSANLTDKELEAFREELKHFEAKIEKHNHYQKQLEIAHEKLRHAESVGDGERVSRSREKHALLEGRTKELGYTVKKHLQDLSGRISRARHNEL
# Key:
# [1] = test system: MMP-2, MMP-9, MMP-13 expression in HTM cells; assay: MMP expression in HTM cells (Examples 17, 18); type: cell-based, human; details: for MMP-9 expression compared to PA+NE-tPA treated cells: p<0.0001
# [2] = test system: Mmp-2, Mmp-9, Mmp-13 mRNA in angle ring tissues; assay: Mmp expression in Tg-MYOCY437H angle ring tissues (Example 19); type: in vivo, mouse; details: 5 days treatment
# Method: Eyes were flash frozen in liquid nitrogen after outflow facility determination and subsequently dissected on ice to obtain the angle ring tissues containing the TM, as previously described (Kumar, Shah et al. 2013). Dissected TM tissues were immersed in RNAlater solution (Invitrogen, Waltham, MA, USA) and then snap-frozen and stored at −80° C. until RNA extraction. Tissue collected was pooled (four eyes) and homogenized in TRIzol reagent for RNA isolation, per manufacturer's instructions (Life Technologies, Carlsbad, CA, USA). RNA concentration was determined with a Nanodrop ND-1000 Spectrophotometer (Thermo Scientific, Wilmington, DE, USA). cDNA was synthesized by using High-Capacity cDNA
# Reverse Transcription Kit (Applied Biosystems, Waltham, MA, USA) according to manufacturer's protocol. Quantitative real-time PCR (qRT-PCR) was performed by using Green-2-Go qPCR Mastermix-ROX (Bio Basic, Amherst, NY, USA) on a QuantStudio 6 Flex thermal cycler (Applied Biosystems, Carlsbad, CA, USA). mRNA expression of Plat, Plait, Pai-1, Mmp-2, Mmp-9, and Mmp-13 in angle ring tissues was determined. Primers were designed by using Primer-BLAST (haps://www.ncbi.nlm.nih.gov/tools/primer-blast/index.cgi?LINK_LOC=BlastHome; in the public domain); primer sequences are listed in Table 2. Primer specificity was confirmed by agarose gel electrophoresis and multiple-sized amplification products were absent on inspection of melting curves. Target mRNA expression values were normalized to the expression levels of Rps11 (ribosomal protein S11). The relative fold change was calculated by using the ΔΔCt method (Hu, Wang et al. 2015). Outliers identified via the Thompson Tau test were removed from analysis.
# [3] = test system: Tg-MYOCY437H mice; details: systemic and topical administration; cited from earlier work
# [4] = test system: sheep of the Coriedale breed; assay: IOP in prednisolone-treated sheep after tPA injection into the anterior chamber (Example 9); type: in vivo
# Method: Methods. Lyophilized IPA, obtained as Acetilyse® from Boehringer Ingelheim S.A. (Buenos Aires) containing arginine. was used. Five sheep of the Coriedale breed were selected. Initially all eyes received instillation of 1% prednisolone 3 times/day for 10 days to elevate their IOP from 10 mm Hg to about 23 mm Hg. Then, 0.0001 μg was injected into one of the eyes and its effect was followed for up to 55:00 hrs while the instillation of prednisolone continued in both eyes. The same protocol was implemented for the 0.001 and 0.01 μg amounts (after extended washout) in the contra lateral eyes. Arginine, which is associated with 0.01 ug tPA, was injected alone and had no effect.
# [5] = test system: sheep; assay: Sheep given tPA or arginine concurrently with prednisolone (Example 3 Protocol 2, Example 4); type: in vivo; details: 4.23 mg arginine intravitreal plus prednisolone (OS) compared to tPA and prednisolone (OD)
# Method: Protocol 2. In a second set of experiments, arginine was added to the BSS vehicle administered to the left eye to control for the relatively high concentration of the amino acid in the commercially available tPA lyophilisate. In these experiments all right eyes received 0.1 mg tPA, which concomitantly delivered 4.23 mg of arginine into the vitreous, and the left eye received this same amount of arginine, absent the tPA. On Day 1, prednisolone treatments were also begun simultaneously on both eyes.
# Methods. In this experiment, the inventor sought to detect the effects of tPA treatment on prevention of steroid-induced IOP elevation. In 4 sheep tPA was injected in one eye (100 μg) and they were started on prednisolone acetate three times a day in both eyes. Animals were monitored for 11 days on continuous treatment.
molecule,measurement,setting,value
C[C@]12N[C@H](Cc3ccccc31)c1ccccc12 [MK-801],MMP-9 expression compared to PA+NE-tPA treated cells,[1]; inhibitor added to PA+NE-tPA,significantly lower
same,MMP-2 expression compared to PA+NE-tPA treatment,"[1]; inhibitor added to PA+NE-tPA, p<0.05",significant reduction
"O=C([O-])CCCc1ccccc1.[Na+] [PBA, sodium phenylbutarate]",Mmp-9 expression compared to BSA treated eyes,[2],higher
same,Mmp-13 expression compared to BSA treated eyes,[2],did not show any difference
same,Mmp-2 expression compared to BSA treated eyes,[2]; p>0.05,no significant difference
same,effect on IOP,[3],effective in reducing IOP
N=C(N)NCCC[C@H](N)C(=O)O [arginine],effect of arginine injected alone,[4]; amount associated with 0.01 ug tPA,no effect
same,effect of arginine alone,[5],failed to reduce outflow facility
"CC(=O)OCC(=O)[C@@]1(O)CC[C@H]2[C@@H]3CCC4=CC(=O)C=C[C@]4(C)[C@H]3[C@@H](O)C[C@@]21C [prednisolone, prednisolone acetate]",MMP-13 expression (FIG. 17D),[1]; PA treated HTM cells,below detection limits
same,IOP after prednisolone,"[4]; 1% prednisolone 3 times/day for 10 days, from 10 mm Hg",about 23 mm Hg
B1,MMP-9 expression compared to PA+NE-tPA treated cells,[1]; inhibitor added to PA+NE-tPA,significantly lower
